Measured values: patent US8765772B2, “Purine derivatives for use in the treatment of allergic, inflammatory and infectious diseases” (GlaxoSmithKline LLC, priority 2008, dated 2014)

Each compound was assayed on TNF-α (assay: Induction of TNF-α using fresh human PBMCs). Details: PBMC, 24 hr incubation, relative to 2 μM resiquimod control, read-out: mean pEC50 for induction of TNF-α (converted).
Format: cell-based
Method: Assay for the Induction of Interferon-α and TNF-α using Fresh Human Peripheral Blood Mononuclear Cells (PBMCs)
Compounds were dissolved and serially diluted in DMSO to give 100× the required concentration range using a Biomek 2000. 1 ul of test compound was transferred into 96-well tissue culture plates using a Biomek FX. Each compound was assayed in duplicate for each donor. Each plate contained a dilution series of the TLR7/8 agonist resiquimod as standard and Column 11 contained 1 μl of 200 μM resiquimod (giving a 2 μM final concentration, used to define the approximate maximal response to resiquimod).
Blood samples from two human donors were collected into sodium heparin (10 U/ml). 25 ml volumes of whole blood were overlaid onto 15 mls Histopaque in Leucosep tubes which were centrifuged at 800 g for 20 min and the band at the plasma/histopaque interface carefully removed. The collected cells were centrifuged at 2500 rpm for 10 min and the pellet resuspended in 10 ml of media (RPMI 1640 (Low endotoxin) supplemented with 10% v/v foetal calf serum (FCS, low endotoxin) 100 U/ml penicillin G, 100 μg/ml streptomycin, 10 mM L-glutamine and 1× non-essential amino acids). A 1:20 dilution of the cells was prepared using trypan blue & the cells counted using a haemocytometer. The PBMCs were diluted to give a final concentration of 2×10^6/ml and 100 ul of this cells suspension was added to wells containing 1 μl of diluted test compound.
Incubation and Assays for Interferon-α and TNF-α
The cell preparations were incubated for 24 hr (37° C., 95% air, 5% CO2) after which a sample of the supernatant was removed using the Biomek FX and assayed for both IFN-α and TNF-α using the MSD (Mesoscale Discovery) electrochemiluminescence assay platform. The IFN-α assay was carried out similarly to that described above. The TNF-α assay was carried out as per kit instructions (Cat No K111BHB). Cytokine released was expressed as a percentage of the 2 μM resiquimod control (column 11). This percentage was plotted against compound concentration and the pEC50 for the response determined by non-linear least squares curve fitting. For the IFN-α responses generally a 4 parameter logistic model was selected. For the TNF responses where a clear maximum response was obtained (i.e. a well defined plateau in the response was observed) then a 4 parameter model was generally used. If the upper asymptote of the curve wasn't well defined then the curve fitting was generally constrained to a maximal response of 100% (i.e. to the response to 2 μM resiquimod) or to the response of the highest concentration tested if this was greater than the resiquimod response. Some curves were bell shaped for one or both cytokines and the cytokine data on the down slope of the bell shaped response (i.e. concentrations above those giving the maximal response) were generally excluded from the fit, usually with the exception of the concentration immediately above the peak response. Curve fitting thus concentrated on the up slope of the dose response curve.

Structure (SMILES)	EC50
CCC[C@H](C)Oc1nc(N)c2[nH]c(=O)n(CCCCN3CCCCCC3)c2n1 [Example 21, 6-Amino-9-[4-(hexahydro-1H-azepin-1-yl)butyl]-2-{[(1S)-1-methylbutyl]oxy}-7,9-dihydro-8H-purin-8-one]	≥ 1000 nM
CCCCOc1nc(N)c2[nH]c(=O)n(CCCCCCN3CCCCCC3)c2n1 [Example 15, 6-Amino-2-(butyloxy)-9-[6-(hexahydro-1H-azepin-1-yl)hexyl]-7,9-dihydro-8H-purin-8-one]	≥ 1000 nM
CCCCOc1nc(N)c2[nH]c(=O)n(CCCCCCN3CCCC3)c2n1 [Example 13, 6-Amino-2-(butyloxy)-9-[6-(1-pyrrolidinyl)hexyl]-7,9-dihydro-8H-purin-8-one]	≥ 1000 nM
CCC[C@H](C)Oc1nc(N)c2[nH]c(=O)n(CCCCN3CCCCC3)c2n1 [Example 20, 6-Amino-2-{[(1S)-1-methylbutyl]oxy}-9-[4-(1-piperidinyl)butyl]-7,9-dihydro-8H-purin-8-one]	≥ 1000 nM

Results, then the compound that gave them:

EC50	Structure (SMILES)
≥ 1000 nM	CCC[C@H](C)Oc1nc(N)c2[nH]c(=O)n(CCCCCN3CCCCCC3)c2n1 [Example 23, 6-Amino-9-[5-(hexahydro-1H-azepin-1-yl)pentyl]-2-{[(1S)-1-methylbutyl]oxy}-7,9-dihydro-8H-purin-8-one]
≥ 1000 nM	CCC[C@H](C)Oc1nc(N)c2[nH]c(=O)n(CCCCCN3CCCCC3)c2n1 [Example 22, 6-Amino-2-{[(1S)-1-methylbutyl]oxy}-9-[5-(1-piperidinyl)pentyl]-7,9-dihydro-8H-purin-8-one]
